The results in this text go back to patent EP0085842A1, “Antimycosic agents” (BAYER AG, priority 1982, dated 1983).

Converted amounts (≈) assume the structure as drawn.

Test [1] deals with Trichophyton mentagrophytes. Description: Antimycotic in-vivo activity (local) in experimental guinea pig trichophytosis. Further details: species or system Meerschweinchen; key: +++++: sehr gute Wirkung = keine Infektionszeichen am 12.-15.Tag p.i.; ++++: gute Wirkung = geringe Rötung, vereinzelt Schuppen; +++: Wirkung = Rötung, Schuppung, ohne Haarausfall; ++: schwache Wirkung = Rötung, Schuppung, Haarausfall; +: Spur Wirkung = flächiger Haarausfall, entzündliche Hautreaktion.

The test system of another test is Candida albicans. Description: Antimycotic in-vitro activity, serial dilution test (MIC). The test is classed as cell-based. The settings on record: Fleischextrakt-Traubenzucker-Bouillon, 20°C, 24 to 96 h, inoculum 5 x 10^4 Keime/ml, read-out: MHK-Werte in γ/ml Nährmedium Candida albicans.
Another test concerns Torulopsis glabrata. The test is described as above. The format is cell-based. The settings on record: Nakaseomyces glabratus; Fleischextrakt-Traubenzucker-Bouillon, 20°C, 24 to 96 h, inoculum 5 x 10^4 Keime/ml; read-out: MHK-Werte in γ/ml Nährmedium Torulopsis glabrata.
A further test deals with Aspergillus fumigatus. The test is described as above. The test is classed as cell-based. The note with it: Sabouraud's milieu d'epreuve, 20°C, 96 h, inoculum 5 x 10^4 Keime/ml, read-out: MHK-Werte in γ/ml Nährmedium Aspergillus fumigatus.
In another test the test system is Microsporum canis. Described as above. The format is cell-based. The note with it: Sabouraud's milieu d'epreuve, 20°C, 96 h, inoculum 5 x 10^4 Keime/ml, read-out: MHK-Werte in γ/ml Nährmedium Microsporum canis.
In another test the test system is Candida-Zellen. In words: Antimycotic in-vivo activity (oral) in mouse candidosis. Further details: species or system Mäuse vom Typ SPF-CF1. The note with it: for Wirkung: mice infected i.v. with Candida, oral 50 - 100 mg/kg one hour before and seven hours after infection, survivors on day 6 p.i.; for Wirkung compared with known compounds (A), (B), (C) and (D): mouse candidosis, oral 50 - 100 mg/kg.

The next test has as its system Trichophyton mentagr. In words: Antimycotic in-vitro activity, serial dilution test (MIC). The test is classed as cell-based, Trichophyton mentagrophytes. The note with it: Sabouraud's milieu d'epreuve, 20°C, 96 h, inoculum 5 x 10^4 Keime/ml, read-out: MHK-Werte in γ/ml Nährmedium Trichophyton mentagr.
The mark [2] stands for this setting: local treatment, trichophytosis model.
Where [3] appears, read: local, 1 x daily from day 3 p.i., 15 %ige Lösung in Dimethylsulfoxid:Glycerin = 1:4, infection signs day 12-15 p.i.

Take `CC(CF)(CF)C(O)(CCc1ccc(Cl)cc1)Cn1cncn1` (stereo not drawn) [Beispiel 28]: the entries for the “Wirkung” value (in test [1] (setting [2]); in test [1] (setting [3]); with Candida-Zellen) were “Wirkung bis gute Wirkung”, “++++” and “++++ (gute Wirkung = 80 % Überlebende am 6.Tag p.i.)”, respectively. Further, the MIC in the test on Candida albicans was 2 µg/mL (≈ 5.82 µM); with Torulopsis glabrata, 2 µg/mL (≈ 5.82 µM); in the test on Aspergillus fumigatus it was less than 1 µg/mL; in the test with Microsporum canis, 2 µg/mL (≈ 5.82 µM); in the test with Trichophyton mentagr. it was less than 1 µg/mL. Moreover, the “Wirkung compared with known compounds (A), (B), (C) and (D)” value in the test on Candida-Zellen is “bessere Wirkung”.
`CC(CF)(CF)C(O)(COc1ccc(Cl)cc1Cl)Cn1ccnc1` (stereo not drawn) [Beispiel 32]: the “Wirkung” value was “Wirkung bis gute Wirkung” in test [1] (setting [2]), “+++” in test [1] (setting [3]) and “++++ (gute Wirkung = 80 % Überlebende am 6.Tag p.i.)” with Candida-Zellen. In addition, the MIC amounted to 2 µg/mL (≈ 5.27 µM) with Candida albicans; 8 µg/mL (≈ 21.1 µM) with Torulopsis glabrata; 32 µg/mL (≈ 84.4 µM) in the test on Aspergillus fumigatus; 16 µg/mL (≈ 42.2 µM) in the test on Microsporum canis; 2 µg/mL (≈ 5.27 µM) in the test on Trichophyton mentagr.. In addition, the “Wirkung compared with known compounds (A), (B), (C) and (D)” value in the test on Candida-Zellen is “bessere Wirkung”.
